These results are taken from patent US11524966B1 (Valo Early Discovery, Inc., priority 2017, dated 2022).

Each structure is given as a SMILES string. A value given as a limit tells only on which side of the number the result lay.

The assay deals with T1, USP25 (USP25-His6, Boston Biochem E-546) (Homo sapiens, UniProt Q9UHP3).
T1 construct: His6; purchased Boston Biochem E-546
T1 sequence (Q9UHP3 1-1055): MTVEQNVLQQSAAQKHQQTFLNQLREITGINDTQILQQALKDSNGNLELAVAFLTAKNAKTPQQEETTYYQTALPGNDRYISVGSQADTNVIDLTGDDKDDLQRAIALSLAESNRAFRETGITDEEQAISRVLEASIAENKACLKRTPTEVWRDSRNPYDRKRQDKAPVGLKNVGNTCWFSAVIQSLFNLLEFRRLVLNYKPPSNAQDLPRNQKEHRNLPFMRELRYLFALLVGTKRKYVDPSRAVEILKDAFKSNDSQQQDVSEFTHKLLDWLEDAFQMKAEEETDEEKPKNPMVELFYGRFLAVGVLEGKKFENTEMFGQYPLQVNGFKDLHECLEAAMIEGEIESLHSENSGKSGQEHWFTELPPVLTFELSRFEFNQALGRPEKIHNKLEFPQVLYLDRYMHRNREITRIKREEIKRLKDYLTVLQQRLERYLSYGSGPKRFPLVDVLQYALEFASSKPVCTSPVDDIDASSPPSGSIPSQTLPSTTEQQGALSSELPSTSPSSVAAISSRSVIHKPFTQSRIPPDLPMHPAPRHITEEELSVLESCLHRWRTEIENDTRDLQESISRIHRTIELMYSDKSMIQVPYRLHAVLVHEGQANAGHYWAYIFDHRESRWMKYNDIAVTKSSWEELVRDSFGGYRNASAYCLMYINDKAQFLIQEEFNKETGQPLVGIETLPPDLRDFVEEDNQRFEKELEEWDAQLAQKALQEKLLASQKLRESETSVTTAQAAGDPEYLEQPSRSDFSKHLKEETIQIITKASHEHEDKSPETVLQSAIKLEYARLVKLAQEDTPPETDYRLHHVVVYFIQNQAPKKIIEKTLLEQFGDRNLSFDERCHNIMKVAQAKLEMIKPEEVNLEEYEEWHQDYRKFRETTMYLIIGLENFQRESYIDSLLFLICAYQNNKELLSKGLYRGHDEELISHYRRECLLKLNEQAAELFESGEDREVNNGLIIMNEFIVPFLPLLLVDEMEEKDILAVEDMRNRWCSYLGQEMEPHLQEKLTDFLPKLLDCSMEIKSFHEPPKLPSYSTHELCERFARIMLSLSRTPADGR
As to the kind of experiment: Ubiquitin-Rhodamine 110 Assay for USP25 Activity, Example A-2. The assay is classed as biochemical. Particulars: Ubiquitin-Rhodamine 110 assay, Example A-2; read-out: USP25 A-2 IC50 range. The gist of the method:
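75 pM USP25-His6 was preincubated 30 min with compound (10-point 3-fold series, 25 μM–1.3 nM) in pH 8.0 Tris buffer with BME, BGG and Triton X-100. Then 25 nM Ub-Rh110 (<<Km) was added for 45 min at room temperature, stopped with citric acid, fluorescence read at 485/535 nm, IC50 by 4-parameter fit.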
For the molecule `Cc1cc(C)c2c(N)c(C(=O)N[C@H]3CCc4nc(N5CC[C@@H]6CNC[C@@H]65)ccc4C3)sc2n1` [Example 219, N-[(6S)-2-[(3aR,6aR)-octahydropyrrolo[2,3-c]pyrrol-1-yl]-5,6,7,8-tetrahydroquinolin-6-yl]-3-amino-4,6-dimethylthieno[2,3-b]pyridine-2-carboxamide], the IC50 was 50 to 200 nM.
In the case of `CO[C@H]1CN(c2ccc3c(c2)OC[C@H](NC(=O)c2sc4nc(C)ccc4c2N)C3)C[C@@H]1NC(C)=O` [Example 213, 3-amino-N-[(3R)-7-[(3S,4S)-3-acetamido-4-methoxypyrrolidin-1-yl]-3,4-dihydro-2H-1-benzopyran-3-yl]-6-methylthieno[2,3-b]pyridine-2-carboxamide] it was 200 to 2000 nM; in that of `N#Cc1c(N2CC3CCC(C2)N3)cc(F)c2c1CC[C@H](NC(=O)c1cnc3c(c1)[C@@H]1C[C@@H]1CN3)C2` [Example 195, (6aS,7aR)-N-[(2S)-5-cyano-6-{3,8-diazabicyclo[3.2.1]octan-3-yl}-8-fluoro-1,2,3,4-tetrahydronaphthalen-2-yl]-5H,6H,6aH,7H,7aH-cyclopropa[c]1,8-naphthyridine-2-carboxamide], 50 to 200 nM; in that of `Cc1ccc2c(N)c(C(=O)N[C@H]3COc4cc(N5CC[C@H]6CNC[C@H]65)cc(F)c4C3)sc2n1` [Example 220, N-[(3R)-7-[(3aS,6aS)-octahydropyrrolo[2,3-c]pyrrol-1-yl]-5-fluoro-3,4-dihydro-2H-1-benzopyran-3-yl]-3-amino-6-methylthieno[2,3-b]pyridine-2-carboxamide], 50 to 200 nM.
In the case of `Cc1ccc2c(N)c(C(=O)N[C@H]3COc4cc(N5CCO[C@@H]6CNC[C@@H]65)ccc4C3)sc2n1` [Example 185, N-[(3R)-7-[(4aS,7aR)-octahydropyrrolo[3,4-b]morpholin-4-yl]-3,4-dihydro-2H-1-benzopyran-3-yl]-3-amino-6-methylthieno[2,3-b]pyridine-2-carboxamide] it was 50 to 200 nM.
For `O=C(N[C@@H]1CCc2cc(N3CC4CCC(C3)N4)cc(F)c2C1)c1cnc2c(c1)[C@H]1C[C@H]1CN2` [Example 194, (6aR,7aS)-N-[(2R)-6-{3,8-diazabicyclo[3.2.1]octan-3-yl}-8-fluoro-1,2,3,4-tetrahydronaphthalen-2-yl]-5H,6H,6aH,7H,7aH-cyclopropa[c]1,8-naphthyridine-2-carboxamide], the 50% inhibitory concentration (IC50) was in the range of 200 to 2000 nM.
With `Cc1ccc2c(N)c(C(=O)N[C@H]3COc4cc(N5C[C@@H](N)C6(COC6)C5)ccc4C3)sc2n1` [Example 259, 3-amino-N-[(3R)-7-[(8S)-8-amino-2-oxa-6-azaspiro[3.4]octan-6-yl]-3,4-dihydro-2H-1-benzopyran-3-yl]-6-methylthieno[2,3-b]pyridine-2-carboxamide], the concentration for half-maximal inhibition (IC50) lay within 200 to 2000 nM.
As to `CO[C@H]1CN(c2cc3c(c(F)c2C#N)C[C@@H](NC(=O)c2sc4nc(C)ccc4c2N)CO3)C[C@@H]1N` [Example 200], the IC50 was in the range of 50 to 200 nM.
Consider `Cc1cc(C)c2c(N)c(C(=O)N[C@H]3COc4cc(N5CC6CCC(C5)N6)c(C#N)c(F)c4C3)sc2n1` [Example 241, 3-amino-N-[(3R)-6-cyano-7-{3,8-diazabicyclo[3.2.1]octan-3-yl}-5-fluoro-3,4-dihydro-2H-1-benzopyran-3-yl]-4,6-dimethylthieno[2,3-b]pyridine-2-carboxamide], for which the IC50 fell in the range of 1 to 50 nM.
On to `Cc1ccc2c(N)c(C(=O)N[C@H]3COc4cc(N5CC[C@@H]6CCNC[C@@H]65)ccc4C3)sc2n1` [Example 225], for which the 50% inhibitory concentration (IC50) lay within 1 to 50 nM.
As for `Cc1ccc2c(N)c(C(=O)N[C@H]3COc4cc(N5CC[C@H]6CNCC[C@H]65)ccc4C3)sc2n1` [Example 235, N-[(3R)-7-[(3aS,7aR)-octahydro-1H-pyrrolo[3,2-c]pyridin-1-yl]-3,4-dihydro-2H-1-benzopyran-3-yl]-3-amino-6-methylthieno[2,3-b]pyridine-2-carboxamide], the IC50 was 50 to 200 nM.
In the case of `Cc1ccc2c(N)c(C(=O)N[C@H]3COc4cc(N5CC[C@@H]6CNCC[C@@H]65)ccc4C3)sc2n1` [Example 236, N-[(3R)-7-[(3aR,7aS)-octahydro-1H-pyrrolo[3,2-c]pyridin-1-yl]-3,4-dihydro-2H-1-benzopyran-3-yl]-3-amino-6-methylthieno[2,3-b]pyridine-2-carboxamide] it was 50 to 200 nM; in that of `Cc1cc(C)c2c(N)c(C(=O)N[C@H]3COc4cc(N5CC[C@H]6CNC[C@H]65)ccc4C3)sc2n1` [Example 226, N-[(3R)-7-[(3aS,6aS)-octahydropyrrolo[2,3-c]pyrrol-1-yl]-3,4-dihydro-2H-1-benzopyran-3-yl]-3-amino-4,6-dimethylthieno[2,3-b]pyridine-2-carboxamide], 50 to 200 nM.
In the case of `Cc1ccc2c(N)c(C(=O)N[C@H]3COc4cc(N5C[C@H](N)C(F)(F)C5)ccc4C3)sc2n1` [Example 256, 3-amino-N-[(3R)-7-[(4S)-4-amino-3,3-difluoropyrrolidin-1-yl]-3,4-dihydro-2H-1-benzopyran-3-yl]-6-methylthieno[2,3-b]pyridine-2-carboxamide] it was 200 to 2000 nM; in that of `Cc1ccc2c(N)c(C(=O)N[C@H]3CCc4nc(N5CC[C@H]6CNC[C@H]65)ccc4C3)sc2n1` [Example 216, N-[(6S)-2-[(3aS,6aS)-octahydropyrrolo[2,3-c]pyrrol-1-yl}-5,6,7,8-tetrahydroquinolin-6-yl]-3-amino-6-methylthieno[2,3-b]pyridine-2-carboxamide], 200 to 2000 nM.
In the case of `Cc1cc(C)c2c(N)c(C(=O)N[C@H]3COc4cc(N5CC[C@@H]6CNC[C@@H]65)ccc4C3)sc2n1` [Example 227, N-[(3R)-7-[(3aR,6aR)-octahydropyrrolo[2,3-c]pyrrol-1-yl]-3,4-dihydro-2H-1-benzopyran-3-yl]-3-amino-4,6-dimethylthieno[2,3-b]pyridine-2-carboxamide] it was 50 to 200 nM.
Consider `CO[C@H]1CN(c2cc3c(cc2C#N)C[C@@H](NC(=O)c2sc4nc(C)ccc4c2N)CC3)C[C@@H]1N` [Example 201, 3-amino-N-[(2S)-6-[(3S,4S)-3-amino-4-methoxypyrrolidin-1-yl]-7-cyano-1,2,3,4-tetrahydronaphthalen-2-yl]-6-methylthieno[2,3-b]pyridine-2-carboxamide], for which the 50% inhibitory concentration (IC50) fell in the range of 200 to 2000 nM.
Take `N#Cc1c(N2CC3CCC(C2)N3)cc(F)c2c1OC[C@H](NC(=O)c1cnc3c(c1)[C@H]1C[C@H]1CN3)C2` [Example 229, (6aR,7aS)-N-[(3R)-8-cyano-7-{3,8-diazabicyclo[3.2.1]octan-3-yl}-5-fluoro-3,4-dihydro-2H-1-benzopyran-3-yl]-5H,6H,6aH,7H,7aH-cyclopropa[c]1,8-naphthyridine-2-carboxamide]: the half-maximal inhibitory concentration (IC50) was greater than 2000 nM.
`COC[C@@H]1CN(c2ccc3c(c2)CC[C@H](NC(=O)c2sc4nc(C)ccc4c2N)C3)C[C@@H]1N` [Example 252, 3-amino-N-[(2S)-6-[(3R,4R)-3-amino-4-(methoxymethyl)pyrrolidin-1-yl]-1,2,3,4-tetrahydronaphthalen-2-yl]-6-methylthieno[2,3-b]pyridine-2-carboxamide]: the IC50 is 200 to 2000 nM.
For `Cc1ccc2c(N)c(C(=O)N[C@H]3COc4cc(N5CC[C@H]6CC[C@H](N)C[C@H]65)ccc4C3)sc2n1` [Example 232, N-[(3R)-7-[(3aR,6S,7aR)-6-amino-octahydro-1H-indol-1-yl]-3,4-dihydro-2H-1-benzopyran-3-yl]-3-amino-6-methylthieno[2,3-b]pyridine-2-carboxamide] the value was 50 to 200 nM.

As usually defined, the IC50 is the concentration that inhibits the measured activity by half.
